Data as given in article PMC7467569, “The Progesterone 5β-Reductase/Iridoid Synthase Family: A Catalytic Reservoir for Specialized Metabolism across Land Plants” (ACS Chemical Biology, 2020).

Legend:
[1] = biological target: T1, Catharanthus roseus 5 (PRISE5, ISY) (Catharanthus roseus, UniProt K7WDL7); experiment: NADPH consumption at […] nm; assay type: biochemical; conditions: read-out: Progesterone / KM; 250 μM NADPH, 50 mM HEPES/NaOH pH 7.0, 100 mM NaCl, 25 °C, 1.5% ethanol
T1 construct: codon-optimized gene from earlier study in pOPINF, N-terminal His6 tag (no cleavage told), E. coli

[2] = biological target: T2, Digitalis purpurea 2 (Digitalis purpurea, UniProt D2JSQ9); experiment: NADPH consumption at […] nm; assay type: biochemical; conditions: 250 μM NADPH, 50 mM HEPES/NaOH pH 7.0, 100 mM NaCl, 25 °C, 0.1% tetrahydrofuran; read-out: 8-Oxogeranial / KM
T2 construct: gene P5BR2; synthetic gene in pOPINF, N-terminal His6 tag (no cleavage told), E. coli

Km [2] [µM]	Compound	Km [1] [µM]
	CC(=O)[C@H]1CC[C@H]2[C@@H]3CCC4=CC(=O)CC[C@]4(C)[C@H]3CC[C@]12C [progesterone]	28.8 ± 11.5
17.7 ± 5.9	C/C(C=O)=C\CC/C(C)=C/C=O [8-oxogeranial]	
